# Experiment: Study 2 blood chemistry
# Format: in vivo, human
# Conditions: for Aspartate Aminotransferase / Gamma-glutamyl: in U/L (unit assumed)
# Experimental: Study 2 design. Study 2 was conducted similar to study 1 with the following modifications. In study 2, plasma levels of HMB were measured for 1440 min (24 h) and total urine collection was also performed for measurement of urinary HMB excretion during this period. After the 180 min blood sample, the subjects were allowed to leave the laboratory and were instructed to return to the laboratory for additional blood samples at 360, 720, and 1440 min after the ingestion of the supplement. As in study 1, each subject took each of the treatments with at least a one week washout period between treatments. Samples were again stored frozen at −70° C. for analysis of plasma and urinary HMB concentrations. Pre-ingestion, 180 min and 1440 min blood samples were again assayed for the same measurements already for study 1. Subjects were provided with a standardized lunch after the 180 min blood sampling and instructed to eat this at approximately 240 min post ingestion. Following the 720 min blood sample, subjects were instructed to eat a normal evening meal before 10 pm. Subjects reported back to the laboratory the following morning for the fasted 1440 min blood sample. A urine collection container was provided and subjects collected all urine produced during the experimental 24 h experimental period. The urine was stored refrigerated when not being collected. Urine volumes were measured and samples of the total urine collection were taken and stored frozen at −70° C. until analyzed for HMB.
# The data were analyzed using a crossover design with Proc GLM in SAS. (45) For the timed sampling of plasma HMB a repeated measures polynomial model was used. The model included subject, order, and treatment main effects and time by treatment interaction where appropriate. For other parameters Proc GLM was also used with subject, order, and treatment main effects and the p values are reported for the treatment main effect. Statistical significance was determined for p<0.05 and a trend was determined for 0.05<p<0.10.
compound,measurement,setting,value
"CC(C)(O)CC(=O)O [HMB-Acid Gel Swallow, 3-hydroxy-3-methylbutyric acid]",A:G Ratio,After (24 h),1.8 ± 0.1
same,Alanine Aminotransferase,After (24 h),16.4 ± 1.7 IU/L
same,Albumin,After (24 h),4.3 ± 0.1 g/dL
same,Alkaline Phosphatase,After (24 h),74.1 ± 7.6 IU/L
same,Blood Urea Nitrogen,After (24 h),13.9 ± 1.4 mg/dL
same,CO2,After (24 h),27.8 ± 0.9 mEq/L
same,Chloride,After (24 h),102.8 ± 0.7 mEq/L
same,Cholesterol Ratio,After (24 h),3.2 ± 0.2
same,Creatinine,After (24 h),1.0 ± 0.1 mg/dL
same,Direct Bilirubin,After (24 h),0.1 ± 0.04 mg/dL
same,Globulin,After (24 h),2.4 ± 0.2 g/dL
same,Glucose,After (24 h),79.9 ± 1.9 mg/dL
same,HDL,After (24 h),56.4 ± 2.9 mg/dL
same,Iron,After (24 h),53.8 ± 10.8 µg/dL
same,Iron Binding Capacity,After (24 h),395.1 ± 34.7 µg/dL
same,Iron Saturation,After (24 h),16.9 ± 4.6%
same,LDL,After (24 h),96.1 ± 8.1 mg/dL
same,Lactate Dehydrogenase,After (24 h),136.6 ± 11.6 IU/L
same,Phosphorus,After (24 h),4.5 ± 0.2 mg/dL
same,Potassium,After (24 h),4.7 ± 0.2 mEq/L
same,Protein,After (24 h),6.7 ± 0.2 g/dL
same,Sodium,After (24 h),141.5 ± 0.9 mEq/L
same,Total Bilirubin,After (24 h),0.5 ± 0.1 mg/dL
same,Total Cholesterol,After (24 h),176.9 ± 11.8 mg/dL
same,Triglycerides,After (24 h),121.4 ± 22.7 mg/dL
same,UIBC,After (24 h),335.1 ± 42.1 µg/dL
same,Uric Acid,After (24 h),4.8 ± 0.3 mg/dL
same,Aspartate Aminotransferase,After (24 h),21.3 ± 0.7
same,Gamma-glutamyl,After (24 h),14.0 ± 1.0
same,A:G Ratio,Before,1.9 ± 0.2
same,Alanine Aminotransferase,Before,16.4 ± 1.6 IU/L
same,Albumin,Before,4.1 ± 0.1 g/dL
same,Alkaline Phosphatase,Before,64.8 ± 7.3 IU/L
same,Blood Urea Nitrogen,Before,14.5 ± 1.4 mg/dL
same,CO2,Before,24.8 ± 1.0 mEq/L
same,Chloride,Before,103.1 ± 0.8 mEq/L
same,Cholesterol Ratio,Before,3.2 ± 0.2
same,Creatinine,Before,1.0 ± 0.1 mg/dL
same,Direct Bilirubin,Before,0.1 ± 0.03 mg/dL
same,Globulin,Before,2.3 ± 0.2 g/dL
same,Glucose,Before,74.1 ± 2.0 mg/dL
same,HDL,Before,51.4 ± 2.8 mg/dL
same,Iron,Before,68.0 ± 13.4 µg/dL
same,Iron Binding Capacity,Before,378.6 ± 32.1 µg/dL
same,Iron Saturation,Before,20.3 ± 5.0%
same,LDL,Before,90.8 ± 7.0 mg/dL
same,Lactate Dehydrogenase,Before,155.9 ± 13.9 IU/L
same,Phosphorus,Before,4.2 ± 0.2 mg/dL
same,Potassium,Before,4.1 ± 0.1 mEq/L
same,Protein,Before,6.4 ± 0.1 g/dL
same,Sodium,Before,139.9 ± 0.7 mEq/L
same,Total Bilirubin,Before,0.5 ± 0.1 mg/dL
same,Total Cholesterol,Before,164.6 ± 10.5 mg/dL
same,Triglycerides,Before,112.6 ± 18.4 mg/dL
same,UIBC,Before,310.6 ± 42.4 µg/dL
same,Uric Acid,Before,4.7 ± 0.1 mg/dL
same,A:G Ratio % Change,Before to After,−2.6%
same,Alanine Aminotransferase % Change,Before to After,0.0%
same,Albumin % Change,Before to After,4.5%
same,Alkaline Phosphatase % Change,Before to After,14.5%
same,Aspartate Aminotransferase % Change,Before to After,−8.6%
same,Blood Urea Nitrogen % Change,Before to After,−4.3%
same,CO2 % Change,Before to After,12.1%
same,Chloride % Change,Before to After,−0.4%
same,Cholesterol Ratio % Change,Before to After,−2.3%
same,Creatinine % Change,Before to After,−0.6%
same,Direct Bilirubin % Change,Before to After,6.0%
same,Gamma-glutamyl % Change,Before to After,5.7%
same,Globulin % Change,Before to After,6.0%
same,Glucose % Change,Before to After,7.8%
same,HDL % Change,Before to After,9.7%
same,Iron % Change,Before to After,−21.0%
same,Iron Binding Capacity % Change,Before to After,4.4%
same,Iron Saturation % Change,Before to After,−16.7%
same,LDL % Change,Before to After,5.9%
same,Lactate Dehydrogenase % Change,Before to After,−12.3%
same,Phosphorus % Change,Before to After,6.2%
same,Potassium % Change,Before to After,14.0%
same,Protein % Change,Before to After,5.1%
same,Sodium % Change,Before to After,1.2%
same,Total Bilirubin % Change,Before to After,2.6%
same,Total Cholesterol % Change,Before to After,7.4%
same,Triglycerides % Change,Before to After,7.8%
same,UIBC % Change,Before to After,7.9%
same,Uric Acid % Change,Before to After,1.9%
same,Aspartate Aminotransferase,Before,23.3 ± 0.9
same,Gamma-glutamyl,Before,13.3 ± 1.2
